Our source for the IC50 values is patent publication US11739070B2, “C5A receptor modulators” (IDORSIA PHARMACEUTICALS LTD, priority 2018, dated 2023).

pIC50: −log10 of the molar value.

This experiment has as its target T1, C5AR1 (Homo sapiens, UniProt P21730).
T1 construct: host or cells: CHO-K1
T1 sequence (P21730 1-350): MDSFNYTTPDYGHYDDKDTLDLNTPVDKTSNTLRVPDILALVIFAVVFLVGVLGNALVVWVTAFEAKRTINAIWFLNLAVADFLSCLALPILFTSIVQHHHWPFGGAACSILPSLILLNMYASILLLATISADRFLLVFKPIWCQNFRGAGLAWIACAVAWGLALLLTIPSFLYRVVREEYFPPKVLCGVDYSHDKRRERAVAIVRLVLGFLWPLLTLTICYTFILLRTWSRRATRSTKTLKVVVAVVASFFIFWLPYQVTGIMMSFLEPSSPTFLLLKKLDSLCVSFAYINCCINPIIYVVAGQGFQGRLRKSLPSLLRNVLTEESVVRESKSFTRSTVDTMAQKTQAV
Kind of experiment: hC5a DISCO IC50 assay (PathHunter beta-arrestin, antagonist mode). It is filed as cell-based. Conditions: CHO-K1 C5AR1 beta-arrestin cell line; antagonist vs 1-10 nM C5a agonist; geometric mean values; read-out: C5aR IC50. In a few lines: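 Antagonist added first, then 1-10 nM C5a agonist; cells incubated 1.5 h at 37 °C. Beta-arrestin signal developed with PathHunter detection reagent, 45 min at RT. IC50 in nmol/l from serial antagonist dilutions, reported as geometric mean of several measurements.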
Turning to `COc1cccc2c1n(Cc1ccccc1C(F)(F)F)c(=O)n2[C@H]1CN(C(=O)OC(C)(C)C)C[C@@H]1C` (relative stereo) [Example 196, (3R*,4S*)-3-[4-Methoxy-2-oxo-3-(2-trifluoromethyl-benzyl)-2,3-dihydro-benzoimidazol-1-yl]-4-methyl-pyrrolidine-1-carboxylic acid tert-butyl ester], the negative logarithm of the IC50 (pIC50) was 6.86.

Take `COc1cccc2c1n(Cc1ccccc1C(F)(F)F)c(=O)n2C1CCN(c2ncccc2C)CC1` [Example 232, 4-Methoxy-1-(3′-methyl-3,4,5,6-tetrahydro-2H-[1,2′]bipyridinyl-4-yl)-3-(2-trifluoromethyl-benzyl)-1,3-dihydro-benzoimidazol-2-one]: the pIC50 was 7.09.

As to `COc1cccc2c1n(Cc1cnccc1C(F)(F)F)c(=O)n2C1CCN(c2c(C)cccc2C)CC1` [Example 58, 1-[1-(2,6-Dimethyl-phenyl)-piperidin-4-yl]-4-methoxy-3-(4-trifluoromethyl-pyridin-3-ylmethyl)-1,3-dihydro-benzoimidazol-2-one], the pIC50 was 7.60.

Turning to `CNC(=O)c1cccc2c1n(Cc1ccccc1C(F)(F)F)c(=O)n2[C@@H]1CCN(c2c(F)cccc2C#N)C1` [Example 99, 1-[(R)-1-(2-Cyano-6-fluoro-phenyl)-pyrrolidin-3-yl]-2-oxo-3-(2-trifluoromethyl-benzyl)-2,3-dihydro-1H-benzoimidazole-4-carboxylic acid methylamide], the pIC50 is 6.41.

Turning to `COc1cccc2c1n(Cc1ccccc1C(F)(F)F)c(=O)n2C1CCN(c2c(C)ccnc2F)CC1` [Example 235, 1-(2′-Fluoro-4′-methyl-3,4,5,6-tetrahydro-2H-[1,3′]bipyridinyl-4-yl)-4-methoxy-3-(2-trifluoromethyl-benzyl)-1,3-dihydro-benzoimidazol-2-one], the pIC50 was 7.55.

With `COc1cccc2c1n(Cc1ccccc1C(F)(F)F)c(=O)n2C1CCN(C(=O)C2CC2)CC1` [Example 222, 1-(1-Cyclopropanecarbonyl-piperidin-4-yl)-4-methoxy-3-(2-trifluoromethyl-benzyl)-1,3-dihydro-benzoimidazol-2-one], the negative logarithm of the IC50 (pIC50) was 5.58.

For the compound `COc1cccc2c1n(Cc1ccccc1C(F)(F)F)c(=O)n2[C@@H]1CCN(C(=O)Oc2ccccc2)C1` [Example 63, (R)-3-[4-Methoxy-2-oxo-3-(2-trifluoromethyl-benzyl)-2,3-dihydro-benzoimidazol-1-yl]-pyrrolidine-1-carboxylic acid phenyl ester], the pIC50 was 6.14.

Turning to `COc1cncc2c1n(Cc1ccccc1C(F)(F)F)c(=O)n2C1CCN(c2c(C)cccc2F)CC1` [Example 229, 3-[1-(2-Fluoro-6-methyl-phenyl)-piperidin-4-yl]-7-methoxy-1-(2-trifluoromethyl-benzyl)-1,3-dihydro-imidazo[4,5-c]pyridin-2-one], the negative logarithm of the IC50 (pIC50) is 6.57.

For the compound `COc1cccc2c1n(Cc1ccccc1C(F)(F)F)c(=O)n2[C@@H]1CCN(c2c(F)cccc2CN2CCN(C)CC2)C1` [Example 132, 1-{(R)-1-[2-Fluoro-6-(4-methyl-piperazin-1-ylmethyl)-phenyl]-pyrrolidin-3-yl}-4-methoxy-3-(2-trifluoromethyl-benzyl)-1,3-dihydro-benzoimidazol-2-one], the pIC50 is 6.50.

With `COC(=O)N1CCC(n2c(=O)n(Cc3ccccc3C(F)(F)F)c3c(OC)cccc32)CC1` [Example 29, 4-[4-Methoxy-2-oxo-3-(2-trifluoromethyl-benzyl)-2,3-dihydro-benzoimidazol-1-yl]-piperidine-1-carboxylic acid methyl ester], the pIC50 was 6.74.

As to `COc1cccc2c1n(Cc1nccnc1C(C)C)c(=O)n2[C@@H]1CCN(c2c(C)cccc2F)C1` [Example 189, 1-[(R)-1-(2-Fluoro-6-methyl-phenyl)-pyrrolidin-3-yl]-3-(3-isopropyl-pyrazin-2-ylmethyl)-4-methoxy-1,3-dihydro-benzoimidazol-2-one], the pIC50 was 7.89.

In the case of `COc1cccc2c1n(Cc1ccccc1C(F)(F)F)c(=O)n2C1CCCN(C(=O)OC(C)(C)C)C1` (centres unmarked) [Example 214, 3-[4-Methoxy-2-oxo-3-(2-trifluoromethyl-benzyl)-2,3-dihydro-benzoimidazol-1-yl]-piperidine-1-carboxylic acid tert-butyl ester], the pIC50 was 6.69.

With `COc1ncnc(C)c1N1CCC(n2c(=O)n(Cc3ccccc3C(F)(F)F)c3c(OC)cccc32)CC1` [Example 249, 4-Methoxy-1-[1-(4-methoxy-6-methyl-pyrimidin-5-yl)-piperidin-4-yl]-3-(2-trifluoromethyl-benzyl)-1,3-dihydro-benzoimidazol-2-one], the pIC50 was 6.56.

Take `COc1cccc2c1n(Cc1ccccc1C(F)(F)F)c(=O)n2[C@@H]1CCN(c2c(F)cccc2CN2CCCC2)C1` [Example 116, 1-[(R)-1-(2-Fluoro-6-pyrrolidin-1-ylmethyl-phenyl)-pyrrolidin-3-yl]-4-methoxy-3-(2-trifluoromethyl-benzyl)-1,3-dihydro-benzoimidazol-2-one]: the negative-log IC50 (pIC50) was 6.78.

For the compound `COc1ccccc1Cn1c(=O)n([C@@H]2CCN(c3c(F)cccc3C#N)C2)c2ncnc(OC)c21` [Example 105, 3-Fluoro-2-{(R)-3-[6-methoxy-7-(2-methoxy-benzyl)-8-oxo-7,8-dihydro-purin-9-yl]-pyrrolidin-1-yl}-benzonitrile], the negative logarithm of the IC50 (pIC50) is 5.35.

With `COc1cccc2c1n(Cc1ccccc1C(F)(F)F)c(=O)n2C1CCN(c2c(F)cccc2F)CC1` [Example 9, 1-[1-(2,6-Difluoro-phenyl)-piperidin-4-yl]-4-methoxy-3-(2-trifluoromethyl-benzyl)-1,3-dihydro-benzoimidazol-2-one], the pIC50 is 7.49.

Regarding `COc1cccc2c1n(Cc1sc(C)nc1C(F)(F)F)c(=O)n2[C@@H]1CCN(c2c(C)cccc2F)C1` [Example 221, 1-[(R)-1-(2-Fluoro-6-methyl-phenyl)-pyrrolidin-3-yl]-4-methoxy-3-(2-methyl-4-trifluoromethyl-thiazol-5-ylmethyl)-1,3-dihydro-benzoimidazol-2-one], the pIC50 is 6.76.

Take `COc1cccc2c1n(Cc1ccccc1C(F)(F)F)c(=O)n2C1CCN(c2ccccc2OCC2CC2)CC1` [Example 240, 1-[1-(2-Cyclopropylmethoxy-phenyl)-piperidin-4-yl]-4-methoxy-3-(2-trifluoromethyl-benzyl)-1,3-dihydro-benzoimidazol-2-one]: the pIC50 is 7.34.

As for `COc1cccc2c1n(Cc1ccccc1OC1CC1)c(=O)n2[C@@H]1CCN(c2c(C)cccc2F)C1` [Example 208, 3-(2-Cyclopropoxy-benzyl)-1-[(R)-1-(2-fluoro-6-methyl-phenyl)-pyrrolidin-3-yl]-4-methoxy-1,3-dihydro-benzoimidazol-2-one], the pIC50 is 7.72.

As for `Cc1cccc(F)c1N1CC[C@@H](n2c(=O)n(Cc3ccccc3C(F)(F)F)c3c(N4CCN(C)CC4)nccc32)C1` [Example 206, 1-[(R)-1-(2-Fluoro-6-methyl-phenyl)-pyrrolidin-3-yl]-4-(4-methyl-piperazin-1-yl)-3-(2-trifluoromethyl-benzyl)-1,3-dihydro-imidazo[4,5-c]pyridin-2-one], the pIC50 was 5.64.

Take `Cc1cccc(F)c1N1CCC(n2c(=O)n(Cc3ccccc3C(F)(F)F)c3c(C)cccc32)CC1` [Example 245, 1-[1-(2-Fluoro-6-methyl-phenyl)-piperidin-4-yl]-4-methyl-3-(2-trifluoromethyl-benzyl)-1,3-dihydro-benzoimidazol-2-one]: the pIC50 is 6.95.

On to `COc1cccc2c1n(Cc1ccccc1C(F)(F)F)c(=O)n2[C@@H]1CCN(c2c(F)cccc2CN2CCCCC2)C1` [Example 133, 1-[(R)-1-(2-Fluoro-6-piperidin-1-ylmethyl-phenyl)-pyrrolidin-3-yl]-4-methoxy-3-(2-trifluoromethyl-benzyl)-1,3-dihydro-benzoimidazol-2-one], for which the pIC50 was 7.15.

For `COCC(C)NCc1cccc(F)c1N1CC[C@@H](n2c(=O)n(Cc3ccccc3C(F)(F)F)c3c(OC)cccc32)C1` (stereo partly drawn) [Example 142, 1-((R)-1-{2-Fluoro-6-[(2-methoxy-1-methyl-ethylamino)-methyl]-phenyl}-pyrrolidin-3-yl)-4-methoxy-3-(2-trifluoromethyl-benzyl)-1,3-dihydro-benzoimidazol-2-one], the pIC50 is 6.97.

On to `COc1cccc2c1n(Cc1ccccc1C(F)(F)F)c(=O)n2[C@@H]1CCN(c2c(F)cccc2CO)C1` [Example 88, 1-[(R)-1-(2-Fluoro-6-hydroxymethyl-phenyl)-pyrrolidin-3-yl]-4-methoxy-3-(2-trifluoromethyl-benzyl)-1,3-dihydro-benzoimidazol-2-one], for which the negative-log IC50 (pIC50) was 7.41.

On to `CN(C)C(=O)c1cccc2c1n(Cc1ccccc1C(F)(F)F)c(=O)n2[C@@H]1CCN(c2c(F)cccc2C#N)C1` [Example 101, 1-[(R)-1-(2-Cyano-6-fluoro-phenyl)-pyrrolidin-3-yl]-2-oxo-3-(2-trifluoromethyl-benzyl)-2,3-dihydro-1H-benzoimidazole-4-carboxylic acid dimethylamide], for which the pIC50 was 5.80.

Regarding `COCCN(C)Cc1cccc(F)c1N1CC[C@@H](n2c(=O)n(Cc3ccccc3C(F)(F)F)c3c(OC)cccc32)C1` [Example 139, 1-[(R)-1-(2-Fluoro-6-{[(2-methoxy-ethyl)-methyl-amino]-methyl}-phenyl)-pyrrolidin-3-yl]-4-methoxy-3-(2-trifluoromethyl-benzyl)-1,3-dihydro-benzoimidazol-2-one], the pIC50 is 6.64.

As a reminder, the pIC50 is −log10 of the IC50, conventionally taken in molar units.
